pEC50: −log10 of the molar value. Where two headings read alike, the source gives them in different places.
How the values were obtained:
[1] = test system: primary human fibroblasts from patients with LHON; experiment: Oxidative stress-induced cell death (BSO) assay, LHON patient fibroblasts; type: cell-based; details: Homo sapiens, Fibroblast; fibroblasts derived from LHON patients, 100 μM BSO; read-out: EC50, protection from oxidative stress-induced cell death
Source text: To determine the effective concentration of the compounds (the concentrations that protect patient cells against oxidative stress-induced cell death) the applicant established an assay using stressed primary human fibroblasts from patients with Leigh syndrome, MELAS or LHON diseases. Utilising the inherent oxidative stress of fibroblasts from patients with mitochondrial disease, their oxidative burden was further increased by depleting cellular glutathione with an inhibitor of glutathione synthesis, L-buthionine-(S,R)-sulfoximine (BSO). […] Cells were seeded at a density of 3000 cells/well in a 96-well format and incubated with increasing concentrations of compounds in combination with BSO (100 μM, Sigma-aldrich). One day after treatment, the cells were washed twice and stained with a solution of 5 μM calcein-AM (Life technologies C3100MP) during 25 min in 199 medium without phenol red (Life technologies, 11043-023) at room temperature. After 2 washes with PBS (Phosphate buffered saline) the plate was read on a fluorescence plate reader (Fluostar Omega, BMG labtech) and the percentage of cell viability determined as a function of fluorescence intensity.

[2] = MAD study pharmacokinetic analysis; type: in vivo, human; details: for AUC / Cmax / Tmax: male, human, plasma, oral; for Cmax: read-out: Cmax (Geomean); for Tmax: read-out: tmax* (median)
Protocol: Dose escalation to the next dose level was done after evaluation of the safety and the first 24-hour pharmacokinetic results of the previous dose. […] Anticipated exposures at this starting dose were just below the Minimum Anticipated Biological Effect Level (MABEL). Placebo (an in taste and appearance matching oral liquid) was also administered orally on one occasion in the single-ascending dose part and b.i.d. for 7 Days in the MAD part. […] All samples were stored at <-70° C. until analysis. […] For mean value calculations, all values below the limit of quantification (LOQ) were set to zero. […] The non-compartmental pharmacokinetic analysis was performed using Phoenix, Version 6.3 (Pharsight Corporation, Mountain View, Calif., USA). […] The PK parameters were calculated on the basis of the actual blood sampling time points relative to dosing. Selected pharmacokinetic parameters (Cmax, tmax, t1/2, AUClast and AUC0-int) following single-dose administration and selected pharmacokinetic parameters Cmax, tmax, [NT], the accumulation factor (Racc) and time to reach steady state) following multiple dose administration were determined. In urine, the percentage of dose excreted in urine was determined for the single- and multiple-dose administration.

CYP3A4 = CYP3A4 (Homo sapiens, UniProt P08684); experiment: In vitro metabolism; type: in vitro ADME
PgP efflux pump = PgP efflux pump (Homo sapiens, UniProt P08183); experiment: In vitro efflux; type: in vitro ADME
[3] = SAD study safety and tolerability (adverse events), healthy male volunteers
[4] = 100 mg, MAD, KH176 100 mg b.i.d, Day 1
[5] = 100 mg, MAD, KH176 100 mg b.i.d, Day 7
[6] = 200 mg, MAD, KH176 200 mg b.i.d, Day 1
[7] = 200 mg, MAD, KH176 200 mg b.i.d, Day 7
[8] = 400 mg, MAD, KH176 400 mg b.i.d, Day 1
[9] = 400 mg, MAD, KH176 400 mg b.i.d, Day 7

Sequence of CYP3A4 (P08684 whole entry): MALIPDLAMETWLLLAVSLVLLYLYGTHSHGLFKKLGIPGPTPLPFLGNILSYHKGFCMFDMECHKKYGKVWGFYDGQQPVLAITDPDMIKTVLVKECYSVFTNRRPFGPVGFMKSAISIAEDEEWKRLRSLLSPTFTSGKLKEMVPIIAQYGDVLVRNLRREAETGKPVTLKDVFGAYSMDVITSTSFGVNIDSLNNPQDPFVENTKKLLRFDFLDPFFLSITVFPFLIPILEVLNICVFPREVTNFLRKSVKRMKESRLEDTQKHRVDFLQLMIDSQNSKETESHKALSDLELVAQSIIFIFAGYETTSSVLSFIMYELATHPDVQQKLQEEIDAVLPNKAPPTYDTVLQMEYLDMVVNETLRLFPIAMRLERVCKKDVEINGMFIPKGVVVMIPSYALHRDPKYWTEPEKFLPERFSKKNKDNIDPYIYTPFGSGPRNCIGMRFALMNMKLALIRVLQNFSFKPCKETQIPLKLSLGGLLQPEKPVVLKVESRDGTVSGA
Sequence of PgP efflux pump (P08183 whole entry): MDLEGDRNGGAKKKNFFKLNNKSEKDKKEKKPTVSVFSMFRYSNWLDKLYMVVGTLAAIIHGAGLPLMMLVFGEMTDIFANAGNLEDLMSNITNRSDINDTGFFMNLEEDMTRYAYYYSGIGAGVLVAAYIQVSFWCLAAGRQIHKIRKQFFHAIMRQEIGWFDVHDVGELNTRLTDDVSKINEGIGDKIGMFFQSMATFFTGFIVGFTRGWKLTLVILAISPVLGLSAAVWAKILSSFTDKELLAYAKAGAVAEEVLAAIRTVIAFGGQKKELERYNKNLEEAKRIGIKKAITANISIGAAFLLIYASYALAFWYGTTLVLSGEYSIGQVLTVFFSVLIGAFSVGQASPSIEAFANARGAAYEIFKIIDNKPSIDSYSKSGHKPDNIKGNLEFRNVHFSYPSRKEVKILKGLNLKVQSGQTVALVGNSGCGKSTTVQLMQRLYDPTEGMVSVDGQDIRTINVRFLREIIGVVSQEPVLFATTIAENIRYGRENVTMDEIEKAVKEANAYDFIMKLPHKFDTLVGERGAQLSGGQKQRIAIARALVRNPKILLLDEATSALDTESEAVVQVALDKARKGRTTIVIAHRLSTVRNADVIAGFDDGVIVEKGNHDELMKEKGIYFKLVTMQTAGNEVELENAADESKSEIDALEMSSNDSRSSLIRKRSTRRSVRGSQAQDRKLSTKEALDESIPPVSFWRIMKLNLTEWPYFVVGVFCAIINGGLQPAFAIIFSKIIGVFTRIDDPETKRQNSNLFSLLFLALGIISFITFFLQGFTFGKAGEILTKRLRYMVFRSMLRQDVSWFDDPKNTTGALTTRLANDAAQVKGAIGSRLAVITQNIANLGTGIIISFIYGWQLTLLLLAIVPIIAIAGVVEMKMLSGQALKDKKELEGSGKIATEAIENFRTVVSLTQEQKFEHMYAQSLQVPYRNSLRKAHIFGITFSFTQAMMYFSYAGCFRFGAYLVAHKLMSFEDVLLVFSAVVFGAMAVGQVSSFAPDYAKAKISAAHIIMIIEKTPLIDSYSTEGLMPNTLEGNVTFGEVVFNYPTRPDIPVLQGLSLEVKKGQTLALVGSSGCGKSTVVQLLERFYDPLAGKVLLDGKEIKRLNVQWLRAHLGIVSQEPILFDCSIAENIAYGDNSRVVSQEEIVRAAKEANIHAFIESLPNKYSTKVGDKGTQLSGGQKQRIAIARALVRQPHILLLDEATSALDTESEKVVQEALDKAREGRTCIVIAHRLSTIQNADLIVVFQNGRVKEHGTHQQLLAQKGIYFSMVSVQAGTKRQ

Cc1c(C)c2c(c(C)c1O)CC[C@@](C)(C(=O)N[C@@H]1CCCNC1)O2.Cl [KH176, (S)-6-hydroxy-2,5,7,8-tetramethyl-N-((R)-piperidin-3-yl)chroman-2-carboxamide hydrochloride]
pEC50 [1]: 7.31 | Racc (accumulation ratio, Geomean) ([2]; MAD, KH176 100 mg b.i.d, Day 7): 2.52 | Racc (accumulation ratio, Geomean) ([2]; MAD, KH176 200 mg b.i.d, Day 7): 2.65 | Racc (accumulation ratio, Geomean) ([2]; MAD, KH176 400 mg b.i.d, Day 7): 2.17 | steady concentrations reached by (first trough measurement) ([2]; MAD, mean trough concentration-time curves): ≤ 4 days | AUC ([2]; 100 mg, MAD, KH176 100 mg b.i.d, Day 1, read-out: AUCtau (Geomean)): 1090 ng·h/mL | Cmax [2, 4]: 184 ng/mL | Tmax [2, 4]: 1.25 h | AUC ([2]; 100 mg, MAD, KH176 100 mg b.i.d, Day 7, read-out: AUCtau (Geomean)): 2760 ng·h/mL | Cmax [2, 5]: 353 ng/mL | Tmax [2, 5]: 1 h | AUC ([2]; 200 mg, MAD, KH176 200 mg b.i.d, Day 1, read-out: AUCtau (Geomean)): 2250 ng·h/mL | Cmax [2, 6]: 313 ng/mL | Tmax [2, 6]: 1.75 h | AUC ([2]; 200 mg, MAD, KH176 200 mg b.i.d, Day 7, read-out: AUCtau (Geomean)): 5960 ng·h/mL | Cmax [2, 7]: 748 ng/mL | Tmax [2, 7]: 2 h | AUC ([2]; 400 mg, MAD, KH176 400 mg b.i.d, Day 1, read-out: AUCtau (Geomean)): 6890 ng·h/mL | Cmax [2, 8]: 1330 ng/mL | Tmax [2, 8]: 1 h | AUC ([2]; 400 mg, MAD, KH176 400 mg b.i.d, Day 7, read-out: AUCtau (Geomean)): 14900 ng·h/mL | Cmax [2, 9]: 2100 ng/mL | Tmax [2, 9]: 1.5 h | AUC ([2]; steady state, BID, read-out: AUCtau (one dosing interval, 12 hours), range): 2130 to 3680 ng·h/mL | average concentrations, range ([2]; steady state, 100 mg BID): 177.5 to 306.6 ng/mL | maximum concentration, range ([2]; steady state, 100 mg BID, healthy subjects): 303 to 458 ng/mL | metabolism (CYP3A4): metabolized by CYP3A4 | efflux / excretion (PgP efflux pump): excreted by the PgP efflux pump | TEAE: Influenza like illness (subjects) ([3]; SAD 10 mg (N = 4)): 0 n (%) | TEAE: Influenza like illness (subjects) ([3]; SAD 30 mg (N = 4)): 0 n (%) | TEAE: Influenza like illness (subjects) ([3]; SAD 100 mg (N = 4)): 0 n (%) | TEAE: Influenza like illness (subjects) ([3]; SAD 100 mg + Food (N = 4)): 0 n (%) | TEAE: Influenza like illness (subjects) ([3]; SAD 300 mg (N = 4)): 0 n (%) | TEAE: Influenza like illness (subjects) ([3]; SAD 800 mg (N = 6)): 0 n (%) | TEAE: Influenza like illness (subjects) ([3]; SAD 2000 mg (N = 4)): 0 n (%)
